Measured values taken from patent US20250171431A1, “HETEROCYCLIC INHIBITORS OF IGF-1R FOR TREATMENT OF DISEASE” (HORIZON THERAPEUTICS IRELAND DAC, priority 2023, published 2025).

target: IGF-1R (Homo sapiens (Human), UniProt P08069); assay: Example B-1: IGF-1R Assay (PC3 cells, IGF1 stimulation, AlphaLISA); assay type: cell-based; settings: 200 ng/mL IGF1 stimulation, read-out: Biological Activity against IGF-1R IC50
Method in brief: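 PC3 cells were serum-starved 2 h, treated with serially diluted compounds for 2 h, then stimulated with IGF1 (200 ng/mL final) for 30 min. Lysates were read by AlphaLISA; % inhibition was calculated relative to vehicle and EC80 controls, with IC50 values binned into ranges.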

Chain of IGF-1R (P08069 31-1367): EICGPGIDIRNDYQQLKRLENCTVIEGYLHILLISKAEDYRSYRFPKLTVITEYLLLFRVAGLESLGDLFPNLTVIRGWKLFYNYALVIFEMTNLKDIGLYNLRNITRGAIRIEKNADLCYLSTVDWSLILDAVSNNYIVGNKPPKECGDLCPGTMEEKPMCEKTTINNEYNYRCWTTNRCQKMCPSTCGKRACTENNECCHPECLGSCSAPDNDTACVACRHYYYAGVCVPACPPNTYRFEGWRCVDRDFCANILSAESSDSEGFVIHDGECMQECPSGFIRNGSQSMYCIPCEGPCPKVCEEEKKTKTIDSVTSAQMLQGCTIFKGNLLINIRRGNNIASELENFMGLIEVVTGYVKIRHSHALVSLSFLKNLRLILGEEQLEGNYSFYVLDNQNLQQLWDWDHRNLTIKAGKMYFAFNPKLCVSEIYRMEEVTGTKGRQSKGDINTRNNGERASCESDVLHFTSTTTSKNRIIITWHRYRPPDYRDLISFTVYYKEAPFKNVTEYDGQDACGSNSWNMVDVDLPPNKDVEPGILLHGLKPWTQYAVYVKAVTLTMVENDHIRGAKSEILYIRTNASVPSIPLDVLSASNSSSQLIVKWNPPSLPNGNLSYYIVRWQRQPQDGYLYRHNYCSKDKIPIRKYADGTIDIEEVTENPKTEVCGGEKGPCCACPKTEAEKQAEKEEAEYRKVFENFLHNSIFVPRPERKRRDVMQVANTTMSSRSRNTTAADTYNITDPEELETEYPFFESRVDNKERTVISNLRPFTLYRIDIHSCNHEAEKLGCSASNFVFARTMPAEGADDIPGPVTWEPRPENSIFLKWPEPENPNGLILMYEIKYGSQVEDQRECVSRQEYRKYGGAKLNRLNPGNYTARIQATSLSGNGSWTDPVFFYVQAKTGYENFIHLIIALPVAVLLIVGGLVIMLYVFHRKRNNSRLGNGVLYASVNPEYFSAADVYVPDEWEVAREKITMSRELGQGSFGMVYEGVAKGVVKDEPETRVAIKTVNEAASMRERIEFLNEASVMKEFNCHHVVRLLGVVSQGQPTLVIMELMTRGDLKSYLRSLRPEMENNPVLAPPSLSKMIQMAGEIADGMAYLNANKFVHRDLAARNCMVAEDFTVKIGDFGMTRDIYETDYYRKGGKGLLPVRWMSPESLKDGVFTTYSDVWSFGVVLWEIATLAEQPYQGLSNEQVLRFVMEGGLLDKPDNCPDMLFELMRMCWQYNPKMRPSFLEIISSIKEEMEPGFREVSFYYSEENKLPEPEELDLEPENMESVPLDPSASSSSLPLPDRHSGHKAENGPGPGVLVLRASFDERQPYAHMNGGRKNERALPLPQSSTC

`CN(C)[C@H]1C[C@H](Oc2ccc(Nc3nccc(Nc4cnc5c(c4)SCCC5)n3)cc2)C1` [Compound 318, 4-(3,4-dihydro-2H-1-thia-5-azanaphth-7-ylamino)-2-{p-[(1r,3r)-3-(dimethylamino)cyclobutoxy]phenylamino}pyrimidine] and `CN(C)[C@H]1C[C@H](Oc2ccc(Nc3nccc(Nc4cnc5ccc(Cl)cc5c4)n3)cc2)C1` [Compound 319, 4-(6-chloro-3-quinolylamino)-2-{p-[(1r,3r)-3-(dimethylamino)cyclobutoxy]phenylamino}pyrimidine] cannot be ordered by IC50: ≤ 500 nM for the first, ≤ 500 nM for the second.

`CN(C)[C@H]1C[C@H](Oc2ccc(Nc3nccc(Nc4cnc5ccc(Br)cc5c4)n3)cc2)C1` [Compound 320, 4-(6-bromo-3-quinolylamino)-2-{p-[(1r,3r)-3-(dimethylamino)cyclobutoxy]phenylamino}pyrimidine] and `COc1cc(Nc2nccc(Nc3cnc4cc(Br)ccc4c3)n2)ccc1O[C@H]1C[C@H](N(C)C)C1` [Compound 328, 4-(7-bromo-3-quinolylamino)-2-{3-methoxy-4-[(1r,3r)-3-(dimethylamino)cyclobutoxy]phenylamino}pyrimidine] cannot be ordered by IC50: ≤ 500 nM for the first, ≤ 500 nM for the second.

`COc1cc(Nc2nccc(Nc3cnc4c(c3)C3CCC4C3)n2)ccc1O[C@H]1C[C@@H](N(C)C)C1` (stereo partly drawn) [Compound 321, 4-{3-azatricyclo[6.2.1.02,7]undeca-2(7),3,5-trien-5-ylamino}-2-{3-methoxy-4-[(1s,3s)-3-(dimethylamino)cyclobutoxy]phenylamino}pyrimidine] and `COc1cc(Nc2nccc(Nc3cnc4ccc(C5CC5)cc4c3)n2)ccc1O[C@H]1C[C@H](N(C)C)C1` [Compound 325, 4-(6-cyclopropyl-3-quinolylamino)-2-{3-methoxy-4-[(1r,3r)-3-(dimethylamino)cyclobutoxy]phenylamino}pyrimidine] cannot be ordered by IC50: ≤ 500 nM for the first, ≤ 500 nM for the second.

`COc1cc(Nc2nccc(Nc3cnc4c(c3)CC3(CC4)OCCO3)n2)ccc1O[C@H]1C[C@@H](N(C)C)C1` [Compound 322, 4-(7′,8′-dihydro-5′H-spiro[1,3-dioxolane-2,6′-quinolin]-3′-ylamino)-2-{3-methoxy-4-[(1s,3s)-3-(dimethylamino)cyclobutoxy]phenylamino}pyrimidine] and `COc1cc(Nc2nccc(Nc3cnc4c(c3)CC(C)(C)CC4)n2)ccc1O[C@H]1C[C@H](N(C)C)C1` [Compound 339, 4-(6,6-dimethyl-5,6,7,8-tetrahydro-3-quinolylamino)-2-{3-methoxy-4-[(1r,3r)-3-(dimethylamino)cyclobutoxy]phenylamino}pyrimidine] cannot be ordered by IC50: ≤ 500 nM for the first, ≤ 500 nM for the second.

`COc1cc(Nc2nccc(Nc3cnc4c(F)c(F)ccc4c3)n2)ccc1O[C@H]1C[C@H](N(C)C)C1` [Compound 323, 4-(7,8-difluoro-3-quinolylamino)-2-{3-methoxy-4-[(1r,3r)-3-(dimethylamino)cyclobutoxy]phenylamino}pyrimidine] and `COc1cc(Nc2nccc(Nc3cnc4cc(Cl)ccc4c3)n2)ccc1O[C@H]1C[C@H](N(C)C)C1` [Compound 324, 4-(7-chloro-3-quinolylamino)-2-{3-methoxy-4-[(1r,3r)-3-(dimethylamino)cyclobutoxy]phenylamino}pyrimidine] cannot be ordered by IC50: ≤ 500 nM for the first, ≤ 500 nM for the second.

`COc1cc(Nc2nccc(Nc3cnc4cc(O)ccc4c3)n2)ccc1O[C@H]1C[C@H](N(C)C)C1` [Compound 326, 3-(2-{3-methoxy-4-[(1r,3r)-3-(dimethylamino)cyclobutoxy]phenylamino}-4-pyrimidinylamino)-7-quinolinol] and `COc1cc(Nc2nccc(Nc3cnc4ccc(O)cc4c3)n2)ccc1O[C@H]1C[C@H](N(C)C)C1` [Compound 330, 3-(2-{3-methoxy-4-[(1r,3r)-3-(dimethylamino)cyclobutoxy]phenylamino}-4-pyrimidinylamino)-6-quinolinol] cannot be ordered by IC50: ≤ 500 nM for the first, ≤ 500 nM for the second.

`Fc1cnc(Nc2ccc(O[C@H]3C[C@H](N4CCOCC4)C3)cc2)nc1Nc1cnc2ccccc2c1` [Compound 327, 5-fluoro-4-(3-quinolylamino)-2-{p-[(1r,3r)-3-morpholinocyclobutoxy]phenylamino}pyrimidine] and `COc1cc(Nc2nccc(Nc3cnc4c(Cl)cccc4c3)n2)ccc1O[C@H]1CC[C@@H](N2CCOCC2)CC1` [Compound 333, 4-(8-chloro-3-quinolylamino)-2-{3-methoxy-4-[(1s,4s)-4-morpholinocyclohexyloxy]phenylamino}pyrimidine] cannot be ordered by IC50: ≤ 500 nM for the first, ≤ 500 nM for the second.

`COc1cc(Nc2nccc(Nc3cnc4ccc(S(C)(=O)=O)cc4c3)n2)ccc1O[C@H]1C[C@H](N(C)C)C1` [Compound 329, 4-(6-mesyl-3-quinolylamino)-2-{3-methoxy-4-[(1r,3r)-3-(dimethylamino)cyclobutoxy]phenylamino}pyrimidine] and `COc1cc(Nc2nccc(Nc3cnc4ccc(C)cc4c3)n2)ccc1O[C@H]1C[C@H](N(C)C)C1` [Compound 335, 2-{3-methoxy-4-[(1r,3r)-3-(dimethylamino)cyclobutoxy]phenylamino}-4-(6-methyl-3-quinolylamino)pyrimidine] cannot be ordered by IC50: ≤ 500 nM for the first, ≤ 500 nM for the second.

`COc1cc(Nc2nccc(Nc3cnc4ccccc4c3)n2)ccc1O[C@H]1CC[C@@H](N(C)C)CC1` [Compound 331] and `COc1cc(Nc2nccc(Nc3cnc4c(Cl)cccc4c3)n2)ccc1O[C@H]1CC[C@@H](N(C)C)CC1` [Compound 332, 4-(8-chloro-3-quinolylamino)-2-{3-methoxy-4-[(1s,4s)-4-(dimethylamino)cyclohexyloxy]phenylamino}pyrimidine] cannot be ordered by IC50: ≤ 500 nM for the first, ≤ 500 nM for the second.

`COc1cc(Nc2nccc(Nc3cnc4ccc(C(F)(F)F)cc4c3)n2)ccc1O[C@H]1C[C@H](N(C)C)C1` [Compound 334, 2-{3-methoxy-4-[(1r,3r)-3-(dimethylamino)cyclobutoxy]phenylamino}-4-[6-(trifluoromethyl)-3-quinolylamino]pyrimidine] and `COc1cc(Nc2nccc(Nc3cnc4cc(C(F)(F)F)ccc4c3)n2)ccc1O[C@H]1C[C@H](N(C)C)C1` [Compound 341, 2-{3-methoxy-4-[(1r,3r)-3-(dimethylamino)cyclobutoxy]phenylamino}-4-[7-(trifluoromethyl)-3-quinolylamino]pyrimidine] cannot be ordered by IC50: ≤ 500 nM for the first, 500 to 2000 nM for the second.

`COc1cc(Nc2nccc(Nc3cnc4cc(C)ccc4c3)n2)ccc1O[C@H]1C[C@H](N(C)C)C1` [Compound 336, 2-{3-methoxy-4-[(1r,3r)-3-(dimethylamino)cyclobutoxy]phenylamino}-4-(7-methyl-3-quinolylamino)pyrimidine] and `COc1ccc2cc(Nc3ccnc(Nc4ccc(O[C@H]5C[C@H](N(C)C)C5)c(OC)c4)n3)cnc2c1` [Compound 337, 4-(7-methoxy-3-quinolylamino)-2-{3-methoxy-4-[(1r,3r)-3-(dimethylamino)cyclobutoxy]phenylamino}pyrimidine] cannot be ordered by IC50: ≤ 500 nM for the first, ≤ 500 nM for the second.

`COc1cc(Nc2nccc(Nc3cnc4c(c3)CCC(C)(C)C4)n2)ccc1O[C@H]1C[C@H](N(C)C)C1` [Compound 338, 4-(7,7-dimethyl-5,6,7,8-tetrahydro-3-quinolylamino)-2-{3-methoxy-4-[(1r,3r)-3-(dimethylamino)cyclobutoxy]phenylamino}pyrimidine] and `COc1cc(Nc2nccc(Nc3cc4ccccc4nc3OC)n2)ccc1O[C@H]1C[C@H](N(C)C)C1` [Compound 340, 4-(2-methoxy-3-quinolylamino)-2-{3-methoxy-4-[(1r,3r)-3-(dimethylamino)cyclobutoxy]phenylamino}pyrimidine] cannot be ordered by IC50: ≤ 500 nM for the first, ≤ 500 nM for the second.
